Where two headings read alike, the source gives them in different places.
Experiments:
TNF-α = test: LPS-stimulated whole bovine blood assay, MSD cytokine detection; type: cell-based; settings: Bos taurus, read-out: TNF-α (IC50 μM)
[1] = system: BRD pathogens, M. haemolytica and P. multocida; test: MIC screening panel of BRD pathogens (antibacterial / non-antibacterial)
IL-1β = test: LPS-stimulated whole bovine blood assay, MSD cytokine detection; type: cell-based; settings: overstimulation of IL-1β, LPS-stimulated bovine whole blood
IL-6 = test: as above; type: cell-based; settings: Bos taurus, read-out: IL-6 (IC50 μM)
Text: In order to correlate RNA sequencing data to cytokine changes the whole blood assay was utilized. […] The enhancement result represents an overall stimulation of cytokine levels due to cellular stress or potential toxicity with increasing concentrations of the compound, representing a typical bell shape response curve for immunomodulatory activity.

[2] = LPS-stimulated bovine whole blood
[3] = read-out: antibacterial / non-antibacterial (MIC for the BRD pathogens)
[4] = read-out: MIC ≤64 μg/mL for at least one of the bacterial strains (flag * at Ex #)

IC50 (TNF-α; [2]) | IC50 (IL-6; [2]) | SMILES | MIC [1, 3] | IL-1β OS of LPS (IL-1β) | MIC [1, 4] | IC50 (TNF-α) | IC50 (IL-6)
14 µM | 28 µM | CC[C@H]1OC(=O)[C@H](C)[C@@H](O[C@H]2C[C@@](C)(OC)[C@](O)(CN3CC(F)(F)C3)[C@H](C)O2)[C@H](C)[C@@H](O[C@@H]2O[C@H](C)C[C@H](N(C)C(=O)N(C)c3ccccc3)[C@H]2O)[C@](C)(O)C[C@@H](C)CN[C@H](C)[C@@H](O)[C@]1(C)O [Example J-15, 1-((2S,3R,4S,6R)-2-(((2R,3S,4R,5R,8R,10R,11R,12S,13S,14R)-13-(((2R,4R,5S,6S)-5-((3,3-difluoroazetidin-1-yl)methyl)-5-hydroxy-4-methoxy-4,6-dimethyltetrahydro-2H-pyran-2-yl)oxy)-2-ethyl-3,4,10-trihydroxy-3,5,8,10,12,14-hexamethyl-15-oxo-1-oxa-6-azacyclopentadecan-11-yl)oxy)-3-hydroxy-6-methyltetrahydro-2H-pyran-4-yl)-1,3-dimethyl-3-phenylurea] | > 64 µg/mL | 16 µM |  |  | 
14 µM | 25 µM | CC[C@H]1OC(=O)[C@H](C)[C@@H](O[C@H]2C[C@@](C)(OC)[C@](O)(CN3CCC(F)(F)CC3)[C@H](C)O2)[C@H](C)[C@@H](O[C@@H]2O[C@H](C)C[C@H](N(C)C(=O)N(C)c3ccccc3)[C@H]2O)[C@](C)(O)C[C@@H](C)CN[C@H](C)[C@@H](O)[C@]1(C)O [Example J-17, 1-((2S,3R,4S,6R)-2-(((2R,3S,4R,5R,8R,10R,11R,12S,13S,14R)-13-(((2R,4R,5S,6S)-5-((4,4-difluoropiperidin-1-yl)methyl)-5-hydroxy-4-methoxy-4,6-dimethyltetrahydro-2H-pyran-2-yl)oxy)-2-ethyl-3,4,10-trihydroxy-3,5,8,10,12,14-hexamethyl-15-oxo-1-oxa-6-azacyclopentadecan-11-yl)oxy)-3-hydroxy-6-methyltetrahydro-2H-pyran-4-yl)-1,3-dimethyl-3-phenylurea] |  | 40 µM | < 64 µg/mL |  | 
 |  | CC[C@H]1OC(=O)[C@H](C)[C@@H](O[C@H]2C[C@@](C)(OC)[C@](O)(CN3CCCCC3)[C@H](C)O2)[C@H](C)[C@@H](O[C@@H]2O[C@H](C)C[C@H](N(C)C(=O)N(C)c3ccccc3)[C@H]2O)[C@](C)(O)C[C@@H](C)CN[C@H](C)[C@@H](O)[C@]1(C)O [Example J-18, 1-((2S,3R,4S,6R)-2-(((2R,3S,4R,5R,8R,10R,11R,12S,13S,14R)-2-ethyl-3,4,10-trihydroxy-13-(((2R,4R,5S,6S)-5-hydroxy-4-methoxy-4,6-dimethyl-5-(piperidin-1-ylmethyl)tetrahydro-2H-pyran-2-yl)oxy)-3,5,8,10,12,14-hexamethyl-15-oxo-1-oxa-6-azacyclopentadecan-11-yl)oxy)-3-hydroxy-6-methyltetrahydro-2H-pyran-4-yl)-1,3-dimethyl-3-phenylurea] |  | >250 µM | < 64 µg/mL | 16 µM | 17 µM
7 µM | 9 µM | CC[C@H]1OC(=O)[C@H](C)[C@@H](O[C@H]2C[C@@](C)(OC)[C@](O)(CN3CCC(c4ccccc4)CC3)[C@H](C)O2)[C@H](C)[C@@H](O[C@@H]2O[C@H](C)C[C@H](N(C)C(=O)N(C)c3ccccc3)[C@H]2O)[C@](C)(O)C[C@@H](C)CN[C@H](C)[C@@H](O)[C@]1(C)O [Example J-20, 1-((2S,3R,4S,6R)-2-(((2R,3S,4R,5R,8R,10R,11R,12S,13S,14R)-2-ethyl-3,4,10-trihydroxy-13-(((2R,4R,5S,6S)-5-hydroxy-4-methoxy-4,6-dimethyl-5-((4-phenylpiperidin-1-yl)methyl)tetrahydro-2H-pyran-2-yl)oxy)-3,5,8,10,12,14-hexamethyl-15-oxo-1-oxa-6-azacyclopentadecan-11-yl)oxy)-3-hydroxy-6-methyltetrahydro-2H-pyran-4-yl)-1,3-dimethyl-3-phenylurea] | > 64 µg/mL | 3 µM |  |  | 
65 µM | 75 µM | CC[C@H]1OC(=O)[C@H](C)[C@@H](O[C@H]2C[C@@](C)(OC)[C@](O)(CN3CCC(S(C)(=O)=O)CC3)[C@H](C)O2)[C@H](C)[C@@H](O[C@@H]2O[C@H](C)C[C@H](N(C)C(=O)N(C)c3ccccc3)[C@H]2O)[C@](C)(O)C[C@@H](C)CN[C@H](C)[C@@H](O)[C@]1(C)O [Example J-21, 1-((2S,3R,4S,6R)-2-(((2R,3S,4R,5R,8R,10R,11R,12S,13S,14R)-2-ethyl-3,4,10-trihydroxy-13-(((2R,4R,5S,6S)-5-hydroxy-4-methoxy-4,6-dimethyl-5-((4-(methylsulfonyl)piperidin-1-yl)methyl)tetrahydro-2H-pyran-2-yl)oxy)-3,5,8,10,12,14-hexamethyl-15-oxo-1-oxa-6-azacyclopentadecan-11-yl)oxy)-3-hydroxy-6-methyltetrahydro-2H-pyran-4-yl)-1,3-dimethyl-3-phenylurea] | > 64 µg/mL | 20 µM |  |  | 
31 µM | 99 µM | CC[C@H]1OC(=O)[C@H](C)[C@@H](O[C@H]2C[C@@](C)(OC)[C@](O)(Cn3ccnc3)[C@H](C)O2)[C@H](C)[C@@H](O[C@@H]2O[C@H](C)C[C@H](N(C)C(=O)N(C)c3ccccc3)[C@H]2O)[C@](C)(O)C[C@@H](C)CN[C@H](C)[C@@H](O)[C@]1(C)O [Example J-24, 1-((2S,3R,4S,6R)-2-(((2R,3S,4R,5R,8R,10R,11R,12S,13S,14R)-13-(((2R,4R,5S,6S)-5-((1H-imidazol-1-yl)methyl)-5-hydroxy-4-methoxy-4,6-dimethyltetrahydro-2H-pyran-2-yl)oxy)-2-ethyl-3,4,10-trihydroxy-3,5,8,10,12,14-hexamethyl-15-oxo-1-oxa-6-azacyclopentadecan-11-yl)oxy)-3-hydroxy-6-methyltetrahydro-2H-pyran-4-yl)-1,3-dimethyl-3-phenylurea] | > 64 µg/mL | 100 µM |  |  | 

Source: patent publication US12295936B2, “Immunomodulating urea azalides” (Zoetis Services LLC, priority 2020, dated 2025)
